From ChEMBL document CHEMBL1144222, “Distinctive molecular inhibition mechanisms for selective inhibitors of human 11beta-hydroxysteroid dehydrogenase type 1” (Bioorg Med Chem, 2008)

Molecular target: 11-beta-hydroxysteroid dehydrogenase 1 (Homo sapiens, UniProt P28845)
Assay: Inhibition of FLAG tagged human recombinant 11beta-HSD1 reductase activity expressed in Trichoplusia ni Hi5 cells
Format: cell-based, BTI-TN-5B1-4

Chain of 11-beta-hydroxysteroid dehydrogenase 1 (P28845 whole entry): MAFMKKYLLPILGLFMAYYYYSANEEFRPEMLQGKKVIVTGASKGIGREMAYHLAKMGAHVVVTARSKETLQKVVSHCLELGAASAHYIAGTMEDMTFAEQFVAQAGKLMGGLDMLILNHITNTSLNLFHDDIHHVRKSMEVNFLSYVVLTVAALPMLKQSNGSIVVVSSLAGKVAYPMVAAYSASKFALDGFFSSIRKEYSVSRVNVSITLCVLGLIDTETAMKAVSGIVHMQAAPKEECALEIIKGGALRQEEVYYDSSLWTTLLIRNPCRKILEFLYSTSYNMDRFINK

IC50: 1.6 nM
SMILES: CC(C)n1c(-c2ccc(OC(F)(F)F)cc2)nnc1C1(c2ccc(F)cc2)CC1
